In test [1] the target is Amyloid-beta precursor protein (Homo sapiens) (UniProt P05067). As to the kind of experiment: Inhibition of agitation-induced amyloid beta (1 to 40) (unknown origin) aggregation at 100 uM measured every 45 mins by thioflavin T based fluorometric assay.
Test [2] has the same target. As to the kind of experiment: Inhibition of agitated amyloid beta (1 to 40) (unknown origin) aggregation at 100 uM measured at equilibrium by thioflavin T based fluorometric assay.
The target is the same in test [3]. As to the kind of experiment: Inhibition of agitated amyloid beta (1 to 40) (unknown origin) aggregation assessed as increase in lag time at 100 uM by dot blot analysis relative to control.
Test [4] shares this target. As to the kind of experiment: Inhibition of agitated amyloid beta (1 to 40) (unknown origin) aggregation assessed as reduction in fibrillar aggregates at 100 uM by dot blot analysis.
The target is the same in test [5]. As to the kind of experiment: Inhibition of amyloid beta (1 to 40) (unknown origin) aggregation assessed as absence of fibrillar branching at equilibrium at 100 uM by uranyl acetate staining based transmission electron microscopic analysis.
Test [6] has the same target. As to the kind of experiment: Inhibition of amyloid beta (1 to 40) (unknown origin) aggregation assessed as decrease in size of protein aggregation at equilibrium at 100 uM after 24 hrs by uranyl acetate staining based transmission electron microscopic analysis.
Test [7] shares this target. As to the kind of experiment: Inhibition of agitation-induced amyloid beta (1 to 40) (unknown origin) aggregation assessed as decrease in lag time at 100 uM measured every 30 to 45 mins by dot blot analysis relative to control.
For test [8] the target is unchanged. As to the kind of experiment: Inhibition of agitation-induced amyloid beta (1 to 40) (unknown origin) aggregation assessed as reduction in fibrillar aggregates at 100 uM measured every 30 to 45 mins by dot blot analysis.
Test [9] shares this target. As to the kind of experiment: Inhibition of agitation-induced amyloid beta (1 to 40) (unknown origin) aggregation assessed as decrease in lag time at 100 uM by dot blot analysis relative to control.
Test [10] shares this target. As to the kind of experiment: Inhibition of amyloid beta (1 to 40) (unknown origin) aggregation assessed as reduction in number aggregates at equilibrium at 100 uM after 24 hrs by uranyl acetate staining based transmission electron microscopic analysis.
The target is the same in test [11]. As to the kind of experiment: Inhibition of amyloid beta (1 to 40) (unknown origin) aggregation assessed as circular/bird-nest like aggregate formation at equilibrium at 100 uM after 24 hrs by uranyl acetate staining based transmission electron microscopic analysis.
The target is the same in test [12]. As to the kind of experiment: Inhibition of amyloid beta (1 to 40) (unknown origin) aggregation assessed as increase in surface hydrophobicity at equilibrium by nile red dye-based spectroscopic analysis.

Calls of active or inactive are those of the source. No cut-off for these calls is given here. Non-standard residues stand in square brackets, D forms with d. Residues, ends and D or L forms follow the SMILES beside them. N(1S-Me-propyl)Gly = CC[C@H](C)NCC(=O)O; Nspe = C[C@H](NCC(=O)O)c1ccccc1; Nphe = O=C(O)CNCc1ccccc1; NPrGly = CCCNCC(=O)O; Nlys = NCCCCNCC(=O)O

Chain of Amyloid-beta precursor protein (Homo sapiens) (P05067 whole entry): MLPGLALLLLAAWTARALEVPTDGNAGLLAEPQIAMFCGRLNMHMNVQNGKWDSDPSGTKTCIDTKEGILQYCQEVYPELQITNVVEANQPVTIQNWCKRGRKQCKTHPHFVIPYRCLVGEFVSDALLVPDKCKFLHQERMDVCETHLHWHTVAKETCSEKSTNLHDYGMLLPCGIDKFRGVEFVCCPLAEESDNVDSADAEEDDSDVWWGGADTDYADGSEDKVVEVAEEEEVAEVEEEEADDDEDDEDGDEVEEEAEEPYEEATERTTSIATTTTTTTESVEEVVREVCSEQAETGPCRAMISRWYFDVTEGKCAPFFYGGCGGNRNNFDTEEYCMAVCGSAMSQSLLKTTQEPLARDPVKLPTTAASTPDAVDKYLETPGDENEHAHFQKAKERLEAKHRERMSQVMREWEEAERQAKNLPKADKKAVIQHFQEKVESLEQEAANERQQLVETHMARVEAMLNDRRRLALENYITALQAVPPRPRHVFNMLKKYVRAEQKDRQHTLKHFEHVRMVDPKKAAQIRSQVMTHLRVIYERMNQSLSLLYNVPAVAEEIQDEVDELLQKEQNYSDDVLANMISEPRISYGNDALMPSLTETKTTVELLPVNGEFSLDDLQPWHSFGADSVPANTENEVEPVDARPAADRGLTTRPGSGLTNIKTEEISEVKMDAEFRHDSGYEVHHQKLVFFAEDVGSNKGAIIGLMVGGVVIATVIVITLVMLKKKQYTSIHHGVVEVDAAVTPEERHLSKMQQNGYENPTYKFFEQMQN

Consider `CC[C@H](C)N(CC(=O)N(CC(=O)N(CC(=O)N(CC(=O)N(CC(=O)N(CC(=O)N(CC(N)=O)[C@@H](C)c1ccccc1)[C@@H](C)c1ccccc1)[C@@H](C)CC)[C@@H](C)c1ccccc1)[C@@H](C)c1ccccc1)[C@@H](C)CC)C(=O)CNCCCCN` (H-[Nlys][N(1S-Me-propyl)Gly][N(1S-Me-propyl)Gly][Nspe][Nspe][N(1S-Me-propyl)Gly][Nspe][Nspe]-NH2), for which the inhibition came out at 81.2% in test [1], 83.1% in test [2], 46% in test [4] and 63.7% in [8]. Also, the fold change (FC) is 2.7 in [3], below 0.31 in [7] and below 0.5 in test [9]. Moreover, the inhibition result in [5], in test [6] and in test [10] was “Active” each time.
Turning to `CC[C@H](C)NCC(=O)N(CC(=O)N(CC(=O)N(CC(=O)N(CC(=O)N(CCCCN)CC(=O)N(CC(=O)N(CC(N)=O)[C@@H](C)c1ccccc1)[C@@H](C)CC)[C@@H](C)CC)[C@@H](C)c1ccccc1)[C@@H](C)c1ccccc1)[C@@H](C)c1ccccc1` (H-[N(1S-Me-propyl)Gly][Nspe][Nspe][Nspe][N(1S-Me-propyl)Gly][Nlys][N(1S-Me-propyl)Gly][Nspe]-NH2), the inhibition was found to be 76.9% in [2] and 50.5% in [4]. In addition, the fold change (FC) in test [3] was determined as 2.2. The inhibition entry in [5] and in [10] was “Active” throughout.
Take `CCCN(CC(=O)N(CCC)CC(=O)N(CC(=O)N(CC(=O)N(CCC)CC(=O)N(CC(=O)N(CC(N)=O)Cc1ccccc1)Cc1ccccc1)Cc1ccccc1)Cc1ccccc1)C(=O)CNCCCCN` (H-[Nlys][NPrGly][NPrGly][Nphe][Nphe][NPrGly][Nphe][Nphe]-NH2): the inhibition came out at 85.6% in test [2] and 72.6% in test [4]. Besides, the inhibition entry in test [5], in test [11], in test [12] and in test [10] was “Active” each time.

As a reminder, the inhibition is the drop in the measured response relative to a control, in per cent.

For the origin of these results see ChEMBL document CHEMBL3868597, “Modulating amyloid-β aggregation: The effects of peptoid side chain placement and chirality” (Bioorg Med Chem, 2017).
